Test results taken from ChEMBL document CHEMBL5247649, “Comparative Efficacy and Selectivity of Pharmacological Inhibitors of DYRK and CLK Protein Kinases” (J Med Chem, 2023).

Assays:
[1] = biological target: Dual specificity protein kinase CLK4 (Homo sapiens, UniProt Q9HAZ1); experiment: biochemical
[2] = biological target: T1, Dual specificity tyrosine-phosphorylation-regulated kinase 4 (Homo sapiens, UniProt Q9NR20); experiment: biochemical; format: cell-based, Sf9
T1 sequence (Q9NR20 whole entry): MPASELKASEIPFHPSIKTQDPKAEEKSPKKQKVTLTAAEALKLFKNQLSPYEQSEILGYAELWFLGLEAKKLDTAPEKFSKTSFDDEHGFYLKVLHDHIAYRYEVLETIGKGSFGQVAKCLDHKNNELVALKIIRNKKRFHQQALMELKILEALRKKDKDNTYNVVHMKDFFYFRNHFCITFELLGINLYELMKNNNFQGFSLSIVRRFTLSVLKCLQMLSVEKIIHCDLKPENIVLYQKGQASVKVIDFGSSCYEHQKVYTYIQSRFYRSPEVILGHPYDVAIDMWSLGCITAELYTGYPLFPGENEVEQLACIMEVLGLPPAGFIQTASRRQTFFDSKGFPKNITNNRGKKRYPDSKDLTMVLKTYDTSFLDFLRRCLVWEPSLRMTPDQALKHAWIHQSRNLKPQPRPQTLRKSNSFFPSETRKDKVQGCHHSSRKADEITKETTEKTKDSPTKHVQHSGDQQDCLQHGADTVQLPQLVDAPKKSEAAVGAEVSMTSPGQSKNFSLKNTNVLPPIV

[3] = biological target: Casein kinase I isoform epsilon (Homo sapiens, UniProt P49674); experiment: biochemical; format: cell-based, Sf9
[4] = biological target: Dual specificity protein kinase CLK3 (Homo sapiens, UniProt P49761); experiment: biochemical; format: cell-based, Sf9
in vitro = conditions: mouse, ht-22
[5] = biological target: T2, Glycogen synthase kinase-3 beta (Homo sapiens, UniProt P49841)
[6] = biological target: T2, Glycogen synthase kinase-3 beta; experiment: biochemical; format: cell-based, Sf9
[7] = biological target: T3, Dual specificity protein kinase CLK1 (Homo sapiens, UniProt P49759); experiment: biochemical; format: cell-based, Sf9
[8] = biological target: T3, Dual specificity protein kinase CLK1
[9] = biological target: T3, Dual specificity protein kinase CLK1; experiment: biochemical; format: cell-based, Sf9; conditions: read-out: IC50
[10] = biological target: Dual specificity protein kinase CLK2 (Homo sapiens, UniProt P49760); experiment: biochemical
[11] = biological target: T4, Dual specificity tyrosine-phosphorylation-regulated kinase 3 (Homo sapiens, UniProt O43781); experiment: biochemical; format: cell-based, Sf9
T4 sequence (O43781 whole entry): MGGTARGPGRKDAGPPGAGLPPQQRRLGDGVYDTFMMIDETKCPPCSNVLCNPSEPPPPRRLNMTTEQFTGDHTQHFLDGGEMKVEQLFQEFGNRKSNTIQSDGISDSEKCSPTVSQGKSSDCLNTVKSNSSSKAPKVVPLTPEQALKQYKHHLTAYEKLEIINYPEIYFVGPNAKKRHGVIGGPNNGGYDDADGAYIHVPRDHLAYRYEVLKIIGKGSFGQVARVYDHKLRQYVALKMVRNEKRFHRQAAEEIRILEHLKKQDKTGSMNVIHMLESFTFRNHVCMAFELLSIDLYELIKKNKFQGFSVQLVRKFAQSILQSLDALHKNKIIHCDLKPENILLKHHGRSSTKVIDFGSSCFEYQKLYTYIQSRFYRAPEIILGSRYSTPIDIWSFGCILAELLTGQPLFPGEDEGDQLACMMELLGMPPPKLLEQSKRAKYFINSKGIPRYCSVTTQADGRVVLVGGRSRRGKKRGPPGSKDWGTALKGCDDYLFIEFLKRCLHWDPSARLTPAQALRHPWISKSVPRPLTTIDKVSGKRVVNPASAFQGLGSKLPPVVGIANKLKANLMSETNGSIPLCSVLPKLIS

[12] = biological target: T5, Dual specificity tyrosine-phosphorylation-regulated kinase 2 (Homo sapiens, UniProt Q92630); experiment: biochemical; format: cell-based, Sf9
T5 sequence (Q92630 whole entry): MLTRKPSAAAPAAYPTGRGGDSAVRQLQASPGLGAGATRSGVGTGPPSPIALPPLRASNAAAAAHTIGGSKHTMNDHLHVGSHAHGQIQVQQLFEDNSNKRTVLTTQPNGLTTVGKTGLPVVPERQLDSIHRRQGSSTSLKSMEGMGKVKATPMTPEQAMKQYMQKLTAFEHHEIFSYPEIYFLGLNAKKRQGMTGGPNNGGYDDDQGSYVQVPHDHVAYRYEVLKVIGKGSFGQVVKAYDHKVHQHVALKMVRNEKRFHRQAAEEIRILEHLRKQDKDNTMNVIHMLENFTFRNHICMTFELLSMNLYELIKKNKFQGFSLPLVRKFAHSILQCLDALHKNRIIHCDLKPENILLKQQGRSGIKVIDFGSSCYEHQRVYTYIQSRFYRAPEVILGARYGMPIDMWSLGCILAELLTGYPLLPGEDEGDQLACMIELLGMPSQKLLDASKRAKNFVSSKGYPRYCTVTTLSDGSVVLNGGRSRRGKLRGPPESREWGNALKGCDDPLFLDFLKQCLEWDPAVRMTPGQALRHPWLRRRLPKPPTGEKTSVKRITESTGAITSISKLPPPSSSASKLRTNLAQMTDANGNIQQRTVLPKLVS

[13] = biological target: Cyclin-dependent kinase 5/CDK5 activator 1 (Homo sapiens, UniProt Q00535); experiment: biochemical; format: cell-based, Sf9
Chain of Cyclin-dependent kinase 5/CDK5 activator 1 (Q00535 whole entry): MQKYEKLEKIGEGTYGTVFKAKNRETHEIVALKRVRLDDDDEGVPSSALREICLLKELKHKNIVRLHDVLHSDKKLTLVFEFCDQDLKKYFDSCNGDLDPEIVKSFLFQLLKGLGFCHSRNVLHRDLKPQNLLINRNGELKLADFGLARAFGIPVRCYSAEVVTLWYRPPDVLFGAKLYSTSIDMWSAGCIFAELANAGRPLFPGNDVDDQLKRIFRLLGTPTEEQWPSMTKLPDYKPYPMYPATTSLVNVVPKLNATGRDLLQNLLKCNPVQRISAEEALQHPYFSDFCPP
Chain of Cyclin-dependent kinase 5/CDK5 activator 1 (Q15078 whole entry, further chain): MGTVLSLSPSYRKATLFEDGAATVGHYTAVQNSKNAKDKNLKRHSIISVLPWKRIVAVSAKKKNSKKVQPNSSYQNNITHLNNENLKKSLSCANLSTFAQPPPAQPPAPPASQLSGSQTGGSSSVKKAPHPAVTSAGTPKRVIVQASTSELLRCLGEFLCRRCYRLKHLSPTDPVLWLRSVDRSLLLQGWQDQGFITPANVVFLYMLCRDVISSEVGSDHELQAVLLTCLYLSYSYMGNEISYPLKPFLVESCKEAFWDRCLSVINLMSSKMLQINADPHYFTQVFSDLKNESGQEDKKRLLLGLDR

Chain of Dual specificity protein kinase CLK2 (P49760 whole entry): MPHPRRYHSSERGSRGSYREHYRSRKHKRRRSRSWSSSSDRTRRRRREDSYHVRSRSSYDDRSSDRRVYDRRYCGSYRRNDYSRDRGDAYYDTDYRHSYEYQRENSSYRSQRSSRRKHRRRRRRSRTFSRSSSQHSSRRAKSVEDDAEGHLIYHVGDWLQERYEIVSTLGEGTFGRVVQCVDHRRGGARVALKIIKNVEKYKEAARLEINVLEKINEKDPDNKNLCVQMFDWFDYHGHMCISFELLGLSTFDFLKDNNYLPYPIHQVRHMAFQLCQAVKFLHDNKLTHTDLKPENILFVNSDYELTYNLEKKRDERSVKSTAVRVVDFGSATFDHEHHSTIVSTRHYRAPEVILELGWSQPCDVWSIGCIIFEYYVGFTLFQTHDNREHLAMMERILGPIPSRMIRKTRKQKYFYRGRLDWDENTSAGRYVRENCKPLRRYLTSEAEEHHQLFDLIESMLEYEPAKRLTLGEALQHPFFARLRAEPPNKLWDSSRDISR
T2 sequence (P49841 whole entry): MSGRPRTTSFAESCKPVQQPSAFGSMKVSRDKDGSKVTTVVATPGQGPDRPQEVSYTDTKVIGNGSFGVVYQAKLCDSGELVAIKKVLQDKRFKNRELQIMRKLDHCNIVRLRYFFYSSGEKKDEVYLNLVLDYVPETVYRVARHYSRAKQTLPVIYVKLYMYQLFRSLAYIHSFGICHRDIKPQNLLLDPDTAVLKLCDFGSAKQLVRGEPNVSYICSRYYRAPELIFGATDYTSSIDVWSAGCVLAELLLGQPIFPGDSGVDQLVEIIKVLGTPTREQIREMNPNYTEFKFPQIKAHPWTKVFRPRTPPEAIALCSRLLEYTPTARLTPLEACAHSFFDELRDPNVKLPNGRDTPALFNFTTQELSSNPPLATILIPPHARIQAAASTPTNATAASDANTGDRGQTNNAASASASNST
Chain of Dual specificity protein kinase CLK3 (P49761 whole entry): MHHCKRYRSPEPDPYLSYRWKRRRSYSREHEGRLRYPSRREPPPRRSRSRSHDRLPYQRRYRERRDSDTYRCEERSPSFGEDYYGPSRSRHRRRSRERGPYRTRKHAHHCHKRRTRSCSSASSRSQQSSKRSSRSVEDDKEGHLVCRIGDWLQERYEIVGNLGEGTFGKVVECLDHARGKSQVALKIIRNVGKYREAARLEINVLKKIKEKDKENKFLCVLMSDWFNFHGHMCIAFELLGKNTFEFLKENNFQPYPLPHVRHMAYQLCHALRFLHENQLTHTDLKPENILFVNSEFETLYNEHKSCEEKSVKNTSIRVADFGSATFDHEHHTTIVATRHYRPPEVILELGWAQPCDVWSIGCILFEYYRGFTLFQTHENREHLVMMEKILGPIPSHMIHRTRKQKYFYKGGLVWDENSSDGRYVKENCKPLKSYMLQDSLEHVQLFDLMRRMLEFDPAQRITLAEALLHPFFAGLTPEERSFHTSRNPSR
T3 sequence (P49759 whole entry): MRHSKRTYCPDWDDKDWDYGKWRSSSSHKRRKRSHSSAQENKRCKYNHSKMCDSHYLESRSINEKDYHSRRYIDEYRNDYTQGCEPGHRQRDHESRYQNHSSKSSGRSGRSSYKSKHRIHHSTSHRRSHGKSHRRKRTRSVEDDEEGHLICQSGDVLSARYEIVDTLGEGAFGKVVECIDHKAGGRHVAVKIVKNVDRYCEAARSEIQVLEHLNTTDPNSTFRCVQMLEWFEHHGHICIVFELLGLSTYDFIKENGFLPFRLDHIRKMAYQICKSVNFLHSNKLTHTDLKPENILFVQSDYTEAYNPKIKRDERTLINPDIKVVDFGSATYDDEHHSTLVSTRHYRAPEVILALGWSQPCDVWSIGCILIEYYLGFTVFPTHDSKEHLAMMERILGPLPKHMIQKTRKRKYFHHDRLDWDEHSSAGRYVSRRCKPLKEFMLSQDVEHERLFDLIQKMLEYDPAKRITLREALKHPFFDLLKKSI
Chain of Casein kinase I isoform epsilon (P49674 whole entry, canonical isoform): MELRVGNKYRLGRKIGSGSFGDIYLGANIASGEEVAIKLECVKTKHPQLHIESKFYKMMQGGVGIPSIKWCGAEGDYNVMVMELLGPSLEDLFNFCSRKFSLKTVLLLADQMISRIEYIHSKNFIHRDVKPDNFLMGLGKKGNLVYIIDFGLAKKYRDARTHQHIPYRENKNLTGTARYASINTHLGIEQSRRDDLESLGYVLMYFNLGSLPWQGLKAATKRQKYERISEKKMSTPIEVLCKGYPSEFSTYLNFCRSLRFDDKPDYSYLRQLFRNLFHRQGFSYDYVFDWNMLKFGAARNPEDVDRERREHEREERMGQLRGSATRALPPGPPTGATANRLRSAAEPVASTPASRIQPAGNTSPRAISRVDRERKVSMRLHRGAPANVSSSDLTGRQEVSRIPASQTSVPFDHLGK
Chain of Dual specificity protein kinase CLK4 (Q9HAZ1 whole entry): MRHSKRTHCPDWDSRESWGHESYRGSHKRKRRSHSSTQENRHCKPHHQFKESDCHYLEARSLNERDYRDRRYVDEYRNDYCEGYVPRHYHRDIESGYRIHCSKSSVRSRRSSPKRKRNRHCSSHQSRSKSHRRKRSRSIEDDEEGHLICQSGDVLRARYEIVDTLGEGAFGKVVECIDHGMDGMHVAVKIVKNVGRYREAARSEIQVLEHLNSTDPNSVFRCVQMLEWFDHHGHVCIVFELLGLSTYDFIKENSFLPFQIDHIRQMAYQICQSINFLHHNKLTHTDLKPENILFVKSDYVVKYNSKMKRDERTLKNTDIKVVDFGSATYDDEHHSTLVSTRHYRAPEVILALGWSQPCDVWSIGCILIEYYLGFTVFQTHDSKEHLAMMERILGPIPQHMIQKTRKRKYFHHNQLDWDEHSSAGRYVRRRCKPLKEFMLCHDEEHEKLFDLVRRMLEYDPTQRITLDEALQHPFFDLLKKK

SMILES | IC50 [1] [µM] | IC50 [2] [µM] | IC50 [3] [µM] | IC50 [4] [µM] | IC50 at 48 h (in vitro) [µM] | Kd [5] [µM] | IC50 [6] [µM] | IC50 [7] [µM] | Kd [8] [pM] | IC50 [9] [µM] | IC50 [10] [µM] | IC50 [11] [µM] | IC50 [12] [µM] | IC50 [13] [µM]
COc1ccc(/C=C2\SC(=S)NC2=O)cc1C#C[Si](C)(C)C | > 10 | > 10 | > 10 | 7.23 | 64.8 |  | > 10 | 8.31 |  |  | 8.41 | > 10 | > 10 | > 10
Cc1ccc(-n2cc(COc3cccc4cnc(Nc5cccc(Cl)c5)nc34)nn2)c([N+](=O)[O-])c1 |  | > 10 | > 10 |  | 100 | > 10 | > 10 |  |  |  |  | > 10 |  | > 10
O=C1NC(NC23CC4CC(CC(C4)C2)C3)=N/C1=C\c1ccc2ncsc2c1 |  | 0.117 | > 10 | 0.812 | 6.3 | 1.76 | 4.16 |  |  |  |  |  |  | 0.243
COc1ccc2nc3ccc(OC)cc3c(SCCCN)c2c1 | 0.452 | 0.584 | > 10 | 7.39 | 14.5 | 2.71 | > 10 |  |  |  | 2.67 |  |  | > 10
O=C(Nc1ccc2[nH]ncc2c1)c1csc(Nc2ccccc2)n1 | 0.123 | > 10 | > 10 | > 10 | > 100 |  |  | 0.0896 | 200000 | 0.507 | 0.082 | 5.45 | 0.439 | > 10
Cn1cc(-c2ccc3cnc(NC(=O)C4CCN(S(C)(=O)=O)CC4)cc3c2)cn1 | 0.0141 | 0.612 | > 10 | 0.681 | 5.9 |  |  | 0.0377 | 620 | 0.0206 | 0.0896 | 0.209 | 0.0372 | 1.79
COc1ccc2nc3c(CO)cc(OC)cc3c(SC[C@H]3CCNC3)c2c1 | 0.537 | 1.93 | > 10 | 6.5 | 14.7 |  | > 10 | 1.25 |  |  | 4.29 |  |  | > 10
COc1ccc2sc(-c3cncc(NC(C)=O)c3)nc2c1 | 0.34 | > 10 | > 10 | > 10 | 100 |  | > 10 | 0.572 |  | 0.385 | 4.41 | > 10 | 1.46 | > 10
CC(C)CN1CCC(C(=O)Nc2cc3cc(-c4cnn(C)c4)ccc3cn2)CC1 | 0.0238 | 2.48 | > 10 | 2.12 | 4.9 |  |  | 0.084 | 968 | 0.015 | 0.38 | 0.683 | 0.215 | 1.03
CCN1CCN(Cc2ccc(Nc3ncc(F)c(-c4cc(F)c5nc(C)n(C(C)C)c5c4)n3)nc2)CC1 [ABEMACICLIB] | 0.0899 | 3.56 | > 10 | 7.48 | 12.2 |  |  | 0.0647 | 851 | 0.0814 | 0.185 | 0.0206 |  | 
[H]/N=C(\N/C(=N/[H])NCCCCCCNC(=N)NC(=N)Nc1ccc(Cl)cc1)Nc1ccc(Cl)cc1 [CHLORHEXIDINE] |  |  |  |  | 5.6 |  |  |  |  |  | 9.16 |  |  | 
COc1ccc2c(c1)[nH]c1c(C)nccc12 [HARMINE] | 0.102 | 8.36 |  | 8.81 | 56.5 |  |  |  |  |  | 1.15 | 2.86 | 3.17 | 
CNCc1ccc(-c2[nH]c3cc(F)cc4c3c2CCNC4=O)cc1 [RUCAPARIB] | > 10 | > 10 | > 10 | > 10 | 57 |  |  | > 10 |  |  | > 10 | 8.03 | > 10 | 
O=C(O)c1ccc2c(c1)nc(Nc1cccc(Cl)c1)c1ccncc12 [SILMITASERTIB] | 0.0026 | 1.52 | > 10 | 0.0774 | 21.3 |  |  |  |  |  |  | 0.0308 | 0.0992 | > 10

Second part, the compound after the results:

IC50 [1] [µM] | IC50 [2] [µM] | IC50 [3] [µM] | IC50 [4] [µM] | IC50 at 48 h (in vitro) [µM] | Kd [5] [µM] | IC50 [6] [µM] | IC50 [7] [µM] | Kd [8] [pM] | IC50 [9] [µM] | IC50 [10] [µM] | IC50 [11] [µM] | IC50 [12] [µM] | IC50 [13] [µM] | SMILES
0.0215 | 0.817 | > 10 | 2.17 | > 100 | 0.561 | > 10 |  |  |  |  |  |  |  | O=C1NC(Nc2ccccc2)=N/C1=C\c1ccc2c(c1)OCO2
 | > 10 | 8.36 | 1.91 | 54 |  |  | 0.0761 | 10200 | 0.0562 | 0.0828 | 4.24 | 4.73 |  | c1ccc(CNc2nc(Nc3cc(C4CC4)[nH]n3)c3sccc3n2)cc1
 |  | > 10 |  | > 100 |  |  |  |  |  |  | > 10 |  | > 10 | COc1ccc(-n2c(C)c([N+](=O)[O-])c3ccc(O)cc32)cc1
0.0211 | 7.33 | 0.63 | 2.48 | 16.3 |  |  | 0.0137 | 254 | 0.0283 | 0.0059 | 5.6 | 1.58 | 0.47 | CC(C)Oc1ccc(F)c(-c2cnc(N)c(C(=O)Nc3cnccc3N3CCC[C@@H](C(=O)O)C3)n2)c1
0.0043 |  | 3.01 |  | 0.18 |  |  | 0.0071 | 18 | 0.0091 |  |  |  | 3.96 | CN1CCN(c2cc(C(=O)Nc3cc4cc(-c5cnn(C)c5)ccc4cn3)ccn2)CC1
0.0162 | 0.426 | 1.77 | 1.11 | 7.7 |  |  |  |  |  | 0.0247 | > 10 | 0.0088 | 0.414 | Cc1nc2ccc(-c3cc(N)nc(N)c3)nc2n1CC(F)(F)F
0.154 | > 10 | 1.51 | > 10 | 51.7 |  |  | 0.441 | 5970 | 2.85 | 0.405 | 4.31 | 7.92 | > 10 | c1cc(OCCN2CCCCC2)cc(-c2n[nH]c3ccc(-c4nc[nH]n4)cc23)c1 [CC-401]
